One experiment addresses T1, PDE4D5 (Homo sapiens, UniProt Q08499).
T1 construct: Using Full-Length Human PDE4 Isoforms: Long Forms PDE4D5, PDE4C3, PDE4B1 and Short Form PDE4B2; made in house; cytosol fraction of the cell lysate, not purified
The experiment can be described thus: PDE assay, activation of full-length human PDE4D5 long form ([3H]cAMP radio-assay). The class given is biochemical. The settings on record: for activation at 30 µM: 30 μM test compound, mean % increase in counts over basal activity. An excerpt: Experiment 1: Measurement of Modulation of Enzyme Activity by PDE4 Long Form Activators of the Present Invention Using Full-Length Human PDE4 Isoforms: Long Forms PDE4D5, PDE4C3, PDE4B1 and Short Form PDE4B2
(Marchmont, R. J. and Houslay, M. D. Biochem. J. 187: 381-92, 1980)
For transient transfection of exogenous PDE4 long isoforms, HEK 293 cells were transfected with pcDNA3.1 or pDEST™ PDE4 expression vectors using Lipofectamine LTX/Plus reagent (Invitrogen) as outlined by the manufacturer.
Where stable cell lines were generated the clonal isolates were expanded to obtain cell lines that stably expressed the full-length human PDE4 long isoforms and the full length human PDE4B2 short isoform. These were called the HEK-PDE4D5, HEK-PDE4B1 and HEK-PDE4B2 cell lines, respectively.
HEK-PDE4D5 cells were seeded out in 100 mm plates and incubated at 37° C. in an atmosphere of 5% CO2, 95% air. Cell lysates were prepared using KHEM buffer [50 mM KCl, 10 mM EGTA, 50 mM HEPES (pH 7.2), 1.92 mM MgCl2].
To prepare the cell lysates, the 100 mm plates containing the cells were placed on ice and washed with ice-cold PBS (phosphate buffered saline, pH 7.4). KHEM buffer (500 μl) was added to the cells. Cells were then scraped off the plate and triturated using a needle (BD Microlance™ 0.8, 40 mm). The lysed cells were then centrifuged at 2000 rpm for 10 minutes to remove cell debris and the supernatant (cell lysate containing recombinant PDE4D5) was transferred to a fresh tube and kept on ice.
The cell lysate containing recombinant PDE4D5 was transferred into a centrifuge tube and placed into an ultracentrifuge (BECKMAN COULTER) and spun at high speed (100,000 g) for 30 minutes at 4° C. The cytosol fraction was then collected and its protein amount determined using a BCA protein assay.
PDE assays were performed in thin walled V-bottomed 96-well plates. The assays were performed at a final concentration of 10 mM Tris/5 mM MgCl2 μlus PDE4D5 cell lysate cytosol fraction, containing over-expressed PDE4D5, with and without test compound. The lysate/compound mix were incubated together for 15 min at room temperature on an orbital shaker prior to addition of [^3H] cAMP (final concentration 1 μM [^3H] cAMP; Perkin Elmer) to a final volume of 50 μl per reaction. The reactions were then incubated for 10 minutes at 30° C., terminated by heating for 2 min at 95° C. and allowed to cool. Snake venom (12.5 μl of 1 mg/ml; Crotalus atrox, Sigma) was then added and the plates were agitated and incubated for a further 15 minutes at 30° C. Dowex ion exchange resin (Sigma, chloride form, 200-400 mesh; 200 μl; prepared as a 1:1 Dowex: water stock, thoroughly re-suspended and diluted 2:1 with ethanol) was then added to each well and the plates incubated for 15 min at room temperature on an orbital shaker ensuring sufficient agitation for resin suspension (550 RPM). The reaction mixture was then transferred to a 96 well filter plate (Millipore; […] pore size) and filtered into a receiving 96-well plate to remove the dowex suspension. 30 μL of the filtered solution was then transferred to the wells of an Opti-plate (Perkin Elmer) 96 well assay plate and 120 μl of Microscint 40 scintillation fluid was added. The plate was then placed on an orbital shaker for 10 min at high speed (900 RPM) to mix the sample with scintillation fluid prior to quantitation using a plate based scintillation counter (Top-Count).
The % increase in counts in the presence of test compound at a particular concentration indicates the % increase in enzyme activity at that concentration.

In a further experiment the test system is m-IMCD3 cells. The experiment can be described thus: Inhibition of PGE2-stimulated in vitro cyst formation in 3D culture of m-IMCD3 cells. The class given is cell-based, mouse. The settings on record: Mus musculus, mIMCD3, 144 h; 10 μM test compound; mean cyst area (%) compared to 100% for (DMSO + PGE2) and 0% for DMSO control; 100 nM PGE2; 6 days; read-out: % Cyst area after incubation with 10 μM test compound. The gist of the method: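 Mouse m-IMCD3 cells grown in 3D collagen I/Matrigel gels. From 18-24 h after plating, compound (0.1% DMSO) plus 100 nM PGE2 were added and replenished at 2-3 days. After 6 days, imaging gave mean cyst area, scaled to 100% for DMSO+PGE2 and 0% for DMSO alone.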

T1 sequence (Q08499 1-745 isoform Q08499-6): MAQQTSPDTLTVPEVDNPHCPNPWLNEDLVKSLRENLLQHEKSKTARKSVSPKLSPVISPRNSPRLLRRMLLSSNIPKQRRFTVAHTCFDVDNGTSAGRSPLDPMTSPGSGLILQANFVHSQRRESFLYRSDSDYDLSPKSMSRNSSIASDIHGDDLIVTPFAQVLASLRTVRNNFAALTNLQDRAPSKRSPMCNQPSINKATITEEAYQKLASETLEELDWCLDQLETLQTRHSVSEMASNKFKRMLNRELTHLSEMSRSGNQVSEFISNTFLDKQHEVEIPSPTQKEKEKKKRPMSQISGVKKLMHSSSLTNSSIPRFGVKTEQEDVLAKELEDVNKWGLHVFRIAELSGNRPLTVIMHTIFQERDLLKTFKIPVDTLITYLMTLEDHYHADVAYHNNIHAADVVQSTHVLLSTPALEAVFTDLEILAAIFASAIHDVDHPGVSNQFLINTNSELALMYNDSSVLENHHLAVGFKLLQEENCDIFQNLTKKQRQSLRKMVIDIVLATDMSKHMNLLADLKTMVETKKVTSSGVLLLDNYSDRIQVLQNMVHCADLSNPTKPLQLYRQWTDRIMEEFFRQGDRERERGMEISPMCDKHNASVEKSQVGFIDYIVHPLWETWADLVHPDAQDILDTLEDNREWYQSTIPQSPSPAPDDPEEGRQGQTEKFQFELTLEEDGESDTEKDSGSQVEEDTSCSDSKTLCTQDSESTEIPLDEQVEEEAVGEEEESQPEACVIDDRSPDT

In the case of `Cc1ncccc1-c1nc2ccc(C(=O)NCc3ccc(Cl)cc3)cc2s1` [Example 1, N-(4-chlorobenzyl)-2-(2-methylpyridin-3-yl)benzo[d]thiazole-6-carboxamide], the activation at 30 µM at PDE4D5 came to 48%. In the experiment on m-IMCD3 cells, the activity at 10 µM is -7%.
At PDE4D5, `Cc1ccc(-c2nc3ccc(C(=O)N[C@H]4CCCc5ccccc54)cc3s2)cn1` [Example 23, (S)-2-(6-methylpyridin-3-yl)-N-(1,2,3,4-tetrahydronaphthalen-1-yl)benzo[d]thiazole-6-carboxamide] had an activation at 30 µM of 94%.
Compound `Cc1ccc(-c2nc3ccc(C(=O)N[C@H]4CCOc5ccccc54)cc3s2)cn1` [Example 24, (S)-N-(chroman-4-yl)-2-(6-methylpyridin-3-yl)benzo[d]thiazole-6-carboxamide] returned an activation at 30 µM at PDE4D5 of 97%.
For `O=C(N[C@H]1CCOc2ccccc21)c1ccc2nc(-c3ccc(C(F)(F)F)nc3)sc2c1` [Example 25, (S)-N-(chroman-4-yl)-2-(6-(trifluoromethyl)pyridin-3-yl)benzo[d]thiazole-6-carboxamide], the activation at 30 µM on PDE4D5 is 37%. Moreover, in the experiment with m-IMCD3 cells, the activity at 10 µM was 23%.
In turn, `Cc1ccc(-c2nc3ccc(C(=O)N[C@H]4CCOc5ccccc54)cc3s2)c(C)n1` [Example 26, (S)-N-(chroman-4-yl)-2-(2,6-dimethylpyridin-3-yl)benzo[d]thiazole-6-carboxamide] returned an activation at 30 µM on PDE4D5 of 88%.
The same measure, in the same setting: with `O=C(N[C@H]1CCOc2ccccc21)c1ccc2nc(-c3ccc(C4CC4)nc3)sc2c1` [Example 27, (S)-N-(chroman-4-yl)-2-(6-cyclopropylpyridin-3-yl)benzo[d]thiazole-6-carboxamide] the figure was 154%; with `Cc1cncc(-c2nc3ccc(C(=O)N[C@H]4c5ccccc5C[C@@H]4O)cc3s2)c1` [Example 41, N-((1S,2S)-2-hydroxy-2,3-dihydro-1H-inden-1-yl)-2-(5-methylpyridin-3-yl)benzo[d]thiazole-6-carboxamide], 194%.
Regarding `Cc1cncc(-c2nc3ccc(C(=O)N[C@@H]4c5ccccc5C[C@H]4O)cc3s2)c1` [Example 42, N-((1R,2R)-2-hydroxy-2,3-dihydro-1H-inden-1-yl)-2-(5-methylpyridin-3-yl)benzo[d]thiazole-6-carboxamide], at PDE4D5, the activation at 30 µM came out at 138%.
The compound `Cc1cncc(-c2nc3ccc(C(=O)N[C@H]4CCCc5ccccc54)cc3s2)c1` [Example 44, (S)-2-(5-methylpyridin-3-yl)-N-(1,2,3,4-tetrahydronaphthalen-1-yl)benzo[d]thiazole-6-carboxamide] showed an activation at 30 µM at PDE4D5 of 87%.
In turn, `Cc1cncc(-c2nc3ccc(C(=O)N[C@H]4CCOc5ccccc54)cc3s2)c1` [Example 45, (S)-N-(chroman-4-yl)-2-(5-methylpyridin-3-yl)benzo[d]thiazole-6-carboxamide] returned an activation at 30 µM on PDE4D5 of 102%.
At PDE4D5, `O=C(N[C@H]1CCOc2ccccc21)c1ccc2nc(-c3cncc(C(F)(F)F)c3)sc2c1` [Example 47, (S)-N-(chroman-4-yl)-2-(5-(trifluoromethyl)pyridin-3-yl)benzo[d]thiazole-6-carboxamide] had an activation at 30 µM of 102%. The activity at 10 µM in the experiment with m-IMCD3 cells worked out at 12%.
In the same order, the values of `O=C(N[C@H]1CCOc2ccccc21)c1ccc2nc(-c3cncc(C4CC4)c3)sc2c1` [Example 48, (S)-N-(chroman-4-yl)-2-(5-cyclopropylpyridin-3-yl)benzo[d]thiazole-6-carboxamide] are 135% and 14%.
Regarding `CC(C)c1cncc(-c2nc3ccc(C(=O)N[C@H]4CCOc5ccccc54)cc3s2)c1` [Example 49, (S)-N-(chroman-4-yl)-2-(5-isopropylpyridin-3-yl)benzo[d]thiazole-6-carboxamide], the activation at 30 µM on PDE4D5 was 131%. Besides, the activity at 10 µM with m-IMCD3 cells was 9%.
Regarding `O=C(N[C@H]1CCOc2ccccc21)c1ccc2nc(-c3ccncc3)sc2c1` [Example 54, (S)-N-(chroman-4-yl)-2-(pyridin-4-yl)benzo[d]thiazole-6-carboxamide], the activation at 30 µM on PDE4D5 was determined as 106%.
Turning to `Cc1cnccc1-c1nc2ccc(C(=O)N[C@H]3CCOc4ccccc43)cc2s1` [Example 55, (S)-N-(chroman-4-yl)-2-(3-methylpyridin-4-yl)benzo[d]thiazole-6-carboxamide], on PDE4D5, the activation at 30 µM was 49%. Besides, in the experiment with m-IMCD3 cells, the activity at 10 µM is 18%.
The compound `Cc1cc(-c2nc3ccc(C(=O)N[C@H]4CCOc5ccccc54)cc3s2)ccn1` [Example 56, (S)-N-(chroman-4-yl)-2-(2-methylpyridin-4-yl)benzo[d]thiazole-6-carboxamide] registered an activation at 30 µM on PDE4D5 of 107%. Besides, in the experiment with m-IMCD3 cells, the activity at 10 µM worked out at 10%.
In the case of `Cn1cc(-c2nc3ccc(C(=O)N[C@H]4CCOc5ccccc54)cc3s2)cn1` [Example 57, (S)-N-(chroman-4-yl)-2-(1-methyl-1H-pyrazol-4-yl)benzo[d]thiazole-6-carboxamide], at PDE4D5, the activation at 30 µM turned out to be 100%.
The compound `Cc1cnn(C)c1-c1nc2ccc(C(=O)N[C@H]3CCOc4ccccc43)cc2s1` [Example 58, (S)-N-(chroman-4-yl)-2-(1,4-dimethyl-1H-pyrazol-5-yl)benzo[d]thiazole-6-carboxamide] came in with an activation at 30 µM at PDE4D5 of 101%.
On the same count and under the same terms, with `Cc1c(-c2nc3ccc(C(=O)N[C@H]4CCOc5ccccc54)cc3s2)cnn1C` [Example 60, (S)-N-(chroman-4-yl)-2-(1,5-dimethyl-1H-pyrazol-4-yl)benzo[d]thiazole-6-carboxamide] the figure was 122%.
Consider `O=C(N[C@H]1CCOc2ccccc21)c1ccc2nc(-c3cncc(CO)c3)sc2c1` [Example 62, (S)-N-(chroman-4-yl)-2-(5-(hydroxymethyl)pyridin-3-yl)benzo[d]thiazole-6-carboxamide], for which the activation at 30 µM on PDE4D5 came to 133%.
Consider `O=C(N[C@H]1CCOc2ccccc21)c1ccc2nc(-c3ccc(C(F)F)nc3)sc2c1` [Example 64, (S)-N-(chroman-4-yl)-2-(6-(difluoromethyl)pyridin-3-yl)benzo[d]thiazole-6-carboxamide], for which, at PDE4D5, the activation at 30 µM was 64%.
On PDE4D5, `Cc1ccncc1-c1nc2cc(C(=O)N[C@H]3CCOc4ccccc43)ccc2s1` [Example 66, (S)-N-(chroman-4-yl)-2-(4-methylpyridin-3-yl)benzo[d]thiazole-5-carboxamide] displayed an activation at 30 µM of 78%. The “Activation of PDE4D5 (FIG. 1)” value at PDE4D5 (concentration response, result in words) is “concentration-dependent activation”.
For the compound `O=C(N[C@H]1CCOc2ccccc21)c1ccc2sc(-c3cccnc3)nc2c1` [Example 67, (S)-N-(chroman-4-yl)-2-(pyridin-3-yl)benzo[d]thiazole-5-carboxamide], at PDE4D5, the activation at 30 µM worked out at 89%.
Turning to `CCN1CCN(c2nc3ccc(C(=O)N[C@H]4CCOc5ccccc54)cc3s2)CC1` [Example 72, (S)-N-(chroman-4-yl)-2-(4-ethylpiperazin-1-yl)benzo[d]thiazole-6-carboxamide], at PDE4D5, the activation at 30 µM was 32%.
For the compound `O=C(N[C@H]1CCOc2ccccc21)c1ccc2nc(N3CCCCC3)sc2c1` [Example 76, (S)-N-(chroman-4-yl)-2-(piperidin-1-yl)benzo[d]thiazole-6-carboxamide], the activation at 30 µM at PDE4D5 was 57%.

The values above are taken from patent US20240150339A1, “Compounds and Their Use as PDE4 Activators” (Mironid Limited, priority 2021, published 2024).
